Results as given in patent US20240148625A1, “Estolide Esters For The Cosmetic Treatment Of Skin” (CLARIANT INTERNATIONAL LTD, priority 2020, published 2024).

What was measured:
[1] = Pigment wetting: viscosity difference rate of pigment dispersion; type: physicochemical; conditions: 65% emollient with 35% red iron oxide; rheometer 20.0° C., 10.0 1/s; lower = better pigment wetting
Text: The viscosity of a pigment dispersion in oil is negatively correlated to the dispersion efficacy of the carrier liquid emollient. Therefore, decreased viscosities confirm the homogeneity of the dispersion. To calculate the viscosity difference rate between the pure emollient without added pigment and the pigment dispersion, the following formula will be used: Viscosity difference rate=(viscosity value after pigment dispersion−viscosity value before pigment dispersion)/(viscosity value before pigment dispersion) The lower the viscosity difference rate the better the pigment wetting. Mixtures of 65% emollient with 35% pigment (red iron oxide) were homogenized and analyzed*. [table]

[2] = Pigment dispersion: particle size by Grindometer; type: physicochemical; conditions: 65% emollient with 35% yellow iron oxide, next day, average of 3
Text: Mixtures of 65% emollient with 35% pigment (yellow iron oxide) were homogenized and analyzed*. [table]

## Pentaerythrityl Tetraisostearate
[1]
  Viscosity difference rate: 21
[2]
  Average particle size: 31 μm
